From PubChem BioAssay AID720588 (Broad Institute, 2013) come the findings set out here.

Calls of active or inactive are those of the source.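 The calls were made as follows: active = fitted curve falls past a set limit of signal loss at no more than twice the top dose; inconclusive = flat fit between 30 and 70% signal loss, or poor fit; inactive = signal rise, flat within 30%, or crossing too high.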

This assay can be described thus: ATP-based viability loss in HEK293T cells – cell-based, CellTiter-Glo luminescence, cherry-pick, set 3, cytotoxicity control, dose response (AID 720588). The conditions noted are these: HEK293T viability, CellTiter-Glo ATP luminescence, 72 h.

Regarding `N#C[C@@H]1[C@H](c2ccc(C#Cc3cccc(F)c3)cc2)[C@@H](CO)N1C(=O)C1CCCC1`, the activity change, negative = cytotoxicity (at 26 µM (top of the series)) is 38% (inactive).
Same read-out and setting: then `O=c1cc(CN2CCN(Cc3ccccc3)CC2)c2ccc(O)c(O)c2o1`, with 28.6% (inactive); and `CCc1cnc(N2[C@H](C#N)[C@H](c3ccc(C#Cc4ccccc4F)cc3)[C@H]2CO)s1`, with -15.3% (inactive); and `Cc1ccc(C(C(=O)NCc2ccco2)N(C(=O)CNC(=O)c2cccs2)c2c(C)cc(C)cc2C)cc1` (centres undefined), with -19.4% (inactive).
Same read-out and setting: as for `COc1ccc(/C=C2\SC(=S)N(CCCC(=O)NC3CCCC3)C2=O)cc1OC`, the figure is -24.3% (inactive).
The same measure, in the same setting: then `Cc1ccc(C(CC(=O)O)Nc2nc(N3CCOCC3)nc(N3CCOCC3)n2)cc1` (centres undefined), with 25.6% (inactive); and `CCC(C)Cn1c(O)cc2nn(-c3nc4ccccc4s3)c(=O)c-2c1C` (centres undefined), with 3.58% (inactive).
As for `O=C1CCCC2=C1C(c1ccccn1)Nc1ccc(C(=O)c3ccccc3)cc1N2` (centres undefined), the activity change, negative = cytotoxicity (at 26 µM (top of the series)) was 7.12% (inactive).
The same measure, in the same setting: as for `CCOc1ccc2nc(NC3=NC(c4ccc(OC)cc4)CC(=O)N3)nc(C)c2c1` (centres undefined), the figure is -23.2% (inactive); as for `COc1ccc(C2=NNC(=Nc3cc(S(=O)(=O)N(C)C)ccc3C)SC2)c(OC)c1`, -17.5% (inactive).
On the same count and under the same terms, then `CC(C)c1ccc(OCc2cccc(C(=O)N/N=C/c3cccnc3)c2)cc1`, with -18.1% (inactive).
On the same count and under the same terms, then `O=C1CCC2S/C(=C/Nc3ccc(C(F)(F)F)cc3)C(=O)N12` (centres undefined), with -9.48% (inactive); and `COc1ccc(N=C(NN)c2ccc3ccccc3n2)cc1`, with -17.4% (inactive).
Turning to `C[C@H](CO)N1C[C@H](C)[C@@H](CN(C)Cc2ccc(Oc3ccccc3)cc2)Oc2ccc(NS(=O)(=O)c3ccc(Cl)cc3)cc2CC1=O`, the activity change, negative = cytotoxicity (at 26 µM (top of the series)) is -17.7% (inactive).
Same read-out and setting: then `O=C(CN1C(=O)c2ccccc2S1(=O)=O)c1ccc(F)cc1`, with 6.26% (inactive); and `CN(C)C(=O)c1cccc(-c2ccc(C3[C@@H]4CN(Cc5nccs5)C[C@H]3N4)cc2)c1` (some centres undefined), with 51.7% (inactive).
The same measure, in the same setting: as for `Cc1ccc2c(c1)C(=O)N1[C@H]3c4cc(Br)ccc4OC[C@@H]3[C@H](c3ccccc3)[C@]1(C)C(=O)N2`, the figure is -13.8% (inactive); as for `Cc1[nH][nH]c(=O)c1C(c1c(C)[nH][nH]c1=O)c1cn(Cc2ccc(Cl)c(Cl)c2)c2ccccc12`, -16% (inactive); as for `Cc1c(CCOC(=O)CC23CC4CC(CC(C)(C4)C2)C3)sc[n+]1CC(=O)c1ccccc1`, 12.1% (inactive).
The same measure, in the same setting: as for `CCCc1cc(=O)oc2c3c(c4c(c12)OC(C)(C)C=C4)OC(C)C(C)C3O` (centres undefined), the figure is -7.17% (inactive).
On to `O=C(O)c1ccc(N/N=C/c2ccc(OC(=O)c3cccc(Cl)c3)cc2)cc1`, for which the activity change, negative = cytotoxicity (at 26 µM (top of the series)) was -29.8% (inactive).
The same measure, in the same setting: as for `CC(C)(C)c1ccc(Cn2c(=O)cnc3ccccc32)cc1`, the figure is -33.1% (inactive); as for `OCC1OC(n2cnc3c(NCc4ccco4)ncnc32)C(O)C1O` (centres undefined), -35.2% (inactive); as for `COc1cc(-c2noc(C)c2C#Cc2nccn2C)cc(OC)c1OC`, -11% (inactive).
Still for that read-out and setting: as for `C[C@@H]1CN([C@H](C)CO)C(=O)c2cc(C#CCc3ccccc3)cnc2O[C@@H]1CN(C)Cc1cccc(F)c1`, the figure is -3.37% (inactive); as for `Cc1ccc(NC(=O)CCN2CCCCC2)cc1`, 17.2% (inactive).
Still for that read-out and setting: as for `O=c1[nH]c(=O)n(C2C[C@H](O)[C@@H](CO)O2)cc1C(F)(F)F` (some centres undefined), the figure is -9.97% (inactive).
On to `Cc1ccc(S(=O)(=O)N(C)C[C@@H]2Oc3ccc(NC(=O)CCCCCC(=O)Nc4ccccc4N)cc3CC(=O)N([C@@H](C)CO)C[C@@H]2C)cc1`, for which the activity change, negative = cytotoxicity (at 21 µM (top of the series)) was 3.82% (inactive).
For `Cc1ccccc1N=Nc1c(O)n(C)c2ccccc12`, the activity change, negative = cytotoxicity (at 26 µM (top of the series)) was 2.96% (inactive).
Turning to `O=S(=O)(c1ccc(F)cc1)N1C[C@H]2[C@@H](c3ccccc31)[C@H](CO)N2Cc1ccccc1Cl`, the activity change, negative = cytotoxicity (at 23.5 µM (top of the series)) is -5.62% (inactive).
For the compound `CCOC(=O)c1c(-c2ccc(C)cc2)csc1NC(=O)CCN1CCOCC1`, the activity change, negative = cytotoxicity (at 26 µM (top of the series)) was 5.98% (inactive).
Still for that read-out and setting: then `CCCC[C@@H]1Cc2[nH][nH]c(=O)c2[C@H](c2ccc3ccccc3c2)O1`, with 16.6% (inactive).
On the same count and under the same terms, then `C[C@@H]1CN([C@@H](C)CO)C(=O)Cc2cc(NC(=O)Cn3cnnn3)ccc2O[C@@H]1CN(C)Cc1ccc(Oc2ccccc2)cc1`, with 14.3% (inactive); and `CN=c1scc(-c2ccccc2F)n1/N=C/c1ccc(O)c(O)c1O`, with -25.3% (inactive); and `CN(C)c1ccc(-c2ccnc3c2CC(C)(C(=O)NCc2ccco2)O3)cc1` (centres undefined), with -32.8% (inactive).
The same measure, in the same setting: then `CCOc1ccc(-c2cc(CCCC(=O)N3CCN(c4ccc(OC)cc4)CC3)no2)cc1`, with -8.72% (inactive); and `Cc1ccc(Cc2c(-c3ccco3)nc3c(C)cc(Br)cn23)cc1`, with 15.5% (inactive).
Take `N#CC1=C(N)Oc2cc(N)ccc2C1c1cccc(F)c1` (centres undefined): the activity change, negative = cytotoxicity (at 26 µM (top of the series)) is -13.6% (inactive).
Same read-out and setting: as for `CC(C)Oc1ccc(Br)cc1C(=O)N/N=C/c1c[nH]c2ccccc12`, the figure is -16.4% (inactive).
`COc1ccc(CN(C)C[C@H]2Oc3ccc(NC(=O)CCCCCC(=O)Nc4ccccc4N)cc3CC(=O)N([C@H](C)CO)C[C@H]2C)cc1`: the activity change, negative = cytotoxicity (at 21 µM (top of the series)) was -29.4% (inactive).
`O=C1NC(=O)N(CCc2ccc(F)cc2)C(=O)/C1=C/C=C/c1ccccc1`: for the setting “at 26 µM (top of the series)”, the activity change, negative = cytotoxicity is -10.7% (inactive).
The same measure, in the same setting: as for `COc1cccc(CN2CCC2(C)C(=O)Nc2cccc3cccnc23)c1F` (centres undefined), the figure is -6.02% (inactive).
On the same count and under the same terms, as for `COc1ccc2cc(C(N)=O)/c(=N\NC(=O)c3ccccc3)oc2c1`, the figure is -13.7% (inactive).
As for `COC(=O)C[C@@H]1CC[C@H]2[C@H](COc3ccc(NC(=O)Nc4ccc(C#N)cc4)cc3C(=O)N2C)O1`, the activity change, negative = cytotoxicity (at 23.5 µM (top of the series)) was 17.6% (inactive).
With `Brc1ccc(CSc2nnc(-c3ccco3)o2)cc1`, the activity change, negative = cytotoxicity (at 26 µM (top of the series)) is -18% (inactive).
Take `O=C(NC(c1ccc(F)cc1)c1ccc2ccccc2n1)C1CCN(Cc2cccc(C(F)(F)F)c2)CC1` (centres undefined): the activity change, negative = cytotoxicity (at 26 µM (top of the series)) is -38.4% (inactive).
Still for that read-out and setting: then `O=C(N/N=C/c1cccs1)c1n[nH]c2c1CCCC2`, with -10.2% (inactive); and `COC(=O)C[C@@H]1CC[C@@H]2[C@@H](COc3ccc(NC(=O)Nc4cccc(C#N)c4)cc3C(=O)N2C)O1`, with 16.9% (inactive).
On the same count and under the same terms, as for `COc1ccc(-c2nc3c(s2)CCc2onc(-c4ccc(OC)cc4)c2-3)cc1`, the figure is -17.8% (inactive).
The same measure, in the same setting: as for `COc1ccc(/C=C2\SC(=S)N(CCCC(=O)NNC(=O)c3ccccc3O)C2=O)cc1`, the figure is 13.3% (inactive); as for `CCOC(=O)Cc1ccc(NC(=O)c2ccccc2Br)cc1`, -14.3% (inactive).
On to `CC(=O)N1CCCC(c2cc(C(=O)Nc3ccccc3)no2)C1` (centres undefined), for which, where the note is “at 26 µM (top of the series)”, the activity change, negative = cytotoxicity is -1.97% (inactive).
On the same count and under the same terms, as for `O=C(O)c1ccccc1C(=O)Nc1ccc(Oc2ccc3ccccc3c2)cc1`, the figure is -15.8% (inactive).
On the same count and under the same terms, as for `Cc1nc2cc(-c3ccc(Cl)cc3)nn2c(C)c1CCC(=O)NC(C)c1ccc2c(c1)OCCO2` (centres undefined), the figure is -34.9% (inactive); as for `COC(=O)C[C@H]1C=C[C@@H](NC(=O)Nc2ccc(C(F)(F)F)cc2)[C@H](CO)O1`, 4.22% (inactive); as for `C[C@H]1CN([C@@H](C)CO)C(=O)c2cc(NS(=O)(=O)c3ccc(Cl)cc3)ccc2O[C@H]1CN(C)Cc1ccc(C(=O)Nc2ccccc2N)cc1`, -0.354% (inactive).
On to `COc1ccc(C(=O)CN2C(=O)c3ccccc3S2(=O)=O)cc1`, for which the activity change, negative = cytotoxicity (at 26 µM (top of the series)) is -13.5% (inactive).
On the same count and under the same terms, then `Cc1occc1-c1n[nH]c(=S)n1C`, with -10.6% (inactive).
In the case of `Cc1noc(C)c1C(=O)Nc1sccc1C(N)=O`, the activity change, negative = cytotoxicity (at 26 µM (top of the series)) was 18% (inactive).
Still for that read-out and setting: then `Cc1ccc(S(=O)(=O)N(C)C[C@@H]2Oc3cc(C#Cc4ccncc4)ccc3S(=O)(=O)N([C@@H](C)CO)C[C@H]2C)cc1`, with -17% (inactive); and `O=C(CCCN1C(=O)S/C(=C\c2ccccc2)C1=O)NNC(=O)c1ccccc1O`, with -28.3% (inactive).
The same measure, in the same setting: as for `CC1(C(=O)NCc2ccco2)Cc2c(-c3cccc(C(N)=O)c3)ccnc2O1` (centres undefined), the figure is -5.89% (inactive).
As to `COC(=O)C[C@@H]1CC[C@@H]2[C@H](COc3ccc(NC(=O)Nc4cccc(Cl)c4)cc3C(=O)N2C)O1`, the activity change, negative = cytotoxicity (at 2.85 µM (top of the series)) was 39.1% (inactive).
Take `COc1cc(/C=N/NS(=O)(=O)c2ccc3ccccc3c2)ccc1OCc1ccc(C(=O)O)cc1`: the activity change, negative = cytotoxicity (at 26 µM (top of the series)) is -17.5% (inactive).
In the case of `Nc1nc(N)c2c(ccc3nccc32)[nH]1`, where the note is “at 26 µM (top of the series)”, the activity change, negative = cytotoxicity was -30.1% (inactive).
For `CCCc1nc2ccc(NC(=O)c3cccs3)cc2c(=O)n1Cc1ccccc1Cl`, the activity change, negative = cytotoxicity (at 26 µM (top of the series)) was -2.41% (inactive).
The same measure, in the same setting: then `Cc1cccc(N2CCN(C3C(=O)Nc4ccccc4-n4nnnc43)CC2)c1C` (centres undefined), with -24.4% (inactive); and `Nc1cc2c(cc1Br)[nH]c(=O)c1ccccc12`, with 17.5% (inactive).
With `CCCNC(=O)[C@@H]1[C@@H](CO)[C@@H]2Cn3c(ccc(-c4ccccc4)c3=O)[C@H]1N2C(=O)CC`, the activity change, negative = cytotoxicity (at 26 µM (top of the series)) is 22.7% (inactive).
